Measured values as given in paper PMC4904246 (Journal of Medicinal Chemistry, 2016).
Converted amounts (≈) assume the structure as drawn. Like-named read-outs stand apart in the source and are kept apart here. Marks after values point to notes of the source that are not given here.

Tests used:
hERG K+ channel = hERG K+ channel (Homo sapiens, UniProt Q12809); details: human, plasma
[1] = mouse plasma; cited from earlier work
[2] = cited from earlier work
[3] = fed state simulated intestinal fluid, pH 5.8 (footnote c); cited from earlier work
[4] = cited from earlier work; remark: listed apart in the source
[5] = scaled; cited from earlier work
[6] = plasma; cited from earlier work
[7] = rat plasma; cited from earlier work
[8] = scaled; cited from earlier work; remark: listed apart in the source
[9] = system: P. falciparum Pf3D7_0087/N9 parasites; details: cited from earlier work
hDHODH [10] = target: T1, hDHODH (Homo sapiens, UniProt Q02127); details: read-out: hDHODH IC50; previous reports; 2 from 15, 3 from 16; cited from earlier work
PvDHODH [11] = target: T2, PvDHODH (Plasmodium vivax, UniProt A5K1N1); details: read-out: PvDHODH IC50; previous reports; 2 from 15, 3 from 16; cited from earlier work
T2 sequence (A5K1N1 160-572): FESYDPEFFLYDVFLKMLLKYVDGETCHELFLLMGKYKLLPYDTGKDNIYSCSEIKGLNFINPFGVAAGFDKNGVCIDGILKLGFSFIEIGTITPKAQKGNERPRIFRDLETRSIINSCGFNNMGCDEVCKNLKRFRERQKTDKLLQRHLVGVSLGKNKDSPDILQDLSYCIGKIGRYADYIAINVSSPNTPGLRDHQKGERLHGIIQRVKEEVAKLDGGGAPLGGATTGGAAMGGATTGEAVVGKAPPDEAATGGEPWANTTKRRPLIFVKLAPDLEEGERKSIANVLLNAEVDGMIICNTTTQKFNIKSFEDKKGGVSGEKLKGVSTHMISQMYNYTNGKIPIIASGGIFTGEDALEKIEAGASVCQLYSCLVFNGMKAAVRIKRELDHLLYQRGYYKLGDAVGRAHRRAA

P. falciparum 3D7 cells = details: read-out: EC50 Pf3D7 cells; previous reports; 2 from 15, 3 from 16; cited from earlier work
[12] = pH 6.5, 30 min at room temperature; cited from earlier work
in vivo = details: Sprague-Dawley, rat, plasma, iv
[13] = plasma protein binding by ultracentrifugation, human plasma; type: in vitro ADME
[14] = plasma protein binding by ultracentrifugation, rat plasma; type: in vitro ADME
[15] = in vitro metabolism, mouse liver microsomes; type: in vitro ADME
[16] = in vitro metabolism, rat liver microsomes; type: in vitro ADME; details: from rat microsomal CLint using physiological scaling factors
dog DHODH = dog DHODH (Canis lupus familiaris, UniProt A0A8I3MWX2); experiment: biochemical
[17] = kinetic aqueous solubility by nephelometry; type: physicochemical
[18] = plasma protein binding by ultracentrifugation, mouse plasma; type: in vitro ADME
PvDHODH [19] = target: T2, PvDHODH; details: PvDHODH IC50 higher than PfDHODH IC50
[20] = in vitro metabolism, human liver microsomes; type: in vitro ADME
hDHODH [21] = target: T1, hDHODH; details: read-out: DHODH IC50 human; Table 2; for 1 four independent replicates
hDHODH [22] = target: T1, hDHODH; experiment: biochemical
[23] = 1 QD, converted to different units
[24] = human, pooled human liver microsomes

T1 sequence (Q02127 31-395 limits assumed): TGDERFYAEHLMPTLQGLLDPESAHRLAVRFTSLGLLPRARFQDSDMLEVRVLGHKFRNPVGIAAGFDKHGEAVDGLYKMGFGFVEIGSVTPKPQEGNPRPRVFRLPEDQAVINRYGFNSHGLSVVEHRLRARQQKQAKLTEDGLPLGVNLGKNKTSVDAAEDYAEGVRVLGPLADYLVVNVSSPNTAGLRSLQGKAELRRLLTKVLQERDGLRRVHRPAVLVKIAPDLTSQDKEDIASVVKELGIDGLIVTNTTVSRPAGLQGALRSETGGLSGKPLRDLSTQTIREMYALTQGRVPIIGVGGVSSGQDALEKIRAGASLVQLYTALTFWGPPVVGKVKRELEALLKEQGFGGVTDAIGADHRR
Chain of dog DHODH (A0A8I3MWX2 1-406): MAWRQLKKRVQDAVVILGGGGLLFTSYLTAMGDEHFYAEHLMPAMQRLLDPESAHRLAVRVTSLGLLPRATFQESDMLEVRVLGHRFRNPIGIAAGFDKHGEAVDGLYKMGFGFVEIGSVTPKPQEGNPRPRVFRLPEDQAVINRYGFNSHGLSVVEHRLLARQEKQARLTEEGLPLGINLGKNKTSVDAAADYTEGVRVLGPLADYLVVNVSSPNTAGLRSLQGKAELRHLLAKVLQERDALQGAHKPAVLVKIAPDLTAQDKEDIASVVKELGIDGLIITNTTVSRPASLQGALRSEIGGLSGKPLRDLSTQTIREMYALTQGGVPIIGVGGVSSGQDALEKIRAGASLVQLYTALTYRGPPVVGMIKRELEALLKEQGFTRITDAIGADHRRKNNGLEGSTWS
Chain of hERG K+ channel (Q12809 whole entry): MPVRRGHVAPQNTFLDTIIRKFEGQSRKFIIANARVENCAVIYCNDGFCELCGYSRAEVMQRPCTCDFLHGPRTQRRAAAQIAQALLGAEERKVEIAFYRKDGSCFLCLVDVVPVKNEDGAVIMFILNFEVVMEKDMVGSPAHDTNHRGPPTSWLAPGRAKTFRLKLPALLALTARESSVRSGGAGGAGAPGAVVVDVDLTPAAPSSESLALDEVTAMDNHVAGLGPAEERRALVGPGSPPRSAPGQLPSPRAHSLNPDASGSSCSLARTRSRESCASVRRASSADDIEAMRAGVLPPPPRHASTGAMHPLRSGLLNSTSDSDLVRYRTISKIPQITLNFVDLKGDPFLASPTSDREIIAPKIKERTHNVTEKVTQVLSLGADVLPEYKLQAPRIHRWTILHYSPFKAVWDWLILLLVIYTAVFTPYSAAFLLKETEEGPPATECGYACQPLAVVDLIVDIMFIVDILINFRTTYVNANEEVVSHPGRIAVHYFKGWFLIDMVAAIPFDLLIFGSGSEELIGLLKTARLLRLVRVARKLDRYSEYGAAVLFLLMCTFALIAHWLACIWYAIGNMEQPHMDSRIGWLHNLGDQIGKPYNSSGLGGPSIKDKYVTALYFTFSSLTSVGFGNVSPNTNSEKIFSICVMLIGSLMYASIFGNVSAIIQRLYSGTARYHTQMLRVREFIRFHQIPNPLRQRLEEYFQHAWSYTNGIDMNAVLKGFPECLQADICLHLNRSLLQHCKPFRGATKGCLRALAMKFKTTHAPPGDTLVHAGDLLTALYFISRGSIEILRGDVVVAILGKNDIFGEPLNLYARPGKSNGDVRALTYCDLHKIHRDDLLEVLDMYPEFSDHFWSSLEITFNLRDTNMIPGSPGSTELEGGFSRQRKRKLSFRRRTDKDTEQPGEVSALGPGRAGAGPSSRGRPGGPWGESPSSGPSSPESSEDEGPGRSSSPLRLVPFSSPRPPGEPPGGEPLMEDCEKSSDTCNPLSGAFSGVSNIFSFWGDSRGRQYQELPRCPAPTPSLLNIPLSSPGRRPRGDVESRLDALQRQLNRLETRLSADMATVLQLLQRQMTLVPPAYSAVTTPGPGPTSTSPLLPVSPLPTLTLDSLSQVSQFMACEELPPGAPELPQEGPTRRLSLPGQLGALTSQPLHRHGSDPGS

SMILES: Cc1cc(Nc2ccc(S(F)(F)(F)(F)F)cc2)n2nc(C(C)(F)F)nc2n1 [Compound 1, 2-(1,1-difluoroethyl)-5-methyl-N-[4-(pentafluoro-λ^6-sulfanyl)phenyl]-[1,2,4]triazolo[1,5-a]pyrimidin-7-amine]
- unbound plasma concentration at likely therapeutic doses lower than the IC50 for hERG channel inhibition (hERG K+ channel): 70–320 fold
- PPB mouse (% bound) [1]: 99.7 % bound
- apparent T1/2 ([2]; rat IV […], […]): 13 h
- oral BA ([2]; rat): 57%
- solubility FeSSIF pH 5.8 [3]: 27.6 ^c μg/mL
- in vitro CLint rat ([4]; rat liver microsomes): 1.8 μL/min/mg protein
- predicted in vivo CLint rat ([4]; rat, scaled): 3.1 mL/min/kg
- predicted in vivo CLint mouse [5]: 7.2 mL/min/kg
- PPB human (% bound) [6]: 99.9 % bound
- PPB rat (% bound) [7]: 97.7 % bound
- predicted in vivo CLint human [8]: 3.5 mL/min/kg
- ED90 ([9]; 1, QD dosing): 8.1 mg/kg
- AUCED90 [9, 23]: 45.7 μM·h/day
- ED90 [9, 23]: 8.1 mg/kg/day

SMILES: Cc1cc(Nc2ccc3ccccc3c2)n2ncnc2n1 [Compound 2, (5-methyl[1,2,4]triazolo[1,5-a]pyrimidin-7-yl)naphthalen-2-ylamine]
- IC50 (hDHODH [10]): > 100 µM
- IC50 (PvDHODH [11]): 0.23 µM
- EC50 (P. falciparum 3D7 cells): 0.068 µM
- predicted in vivo CLint mouse [5]: 591 mL/min/kg
- kinetic solubility pH 6.5 [12]: 12.5–25 μg/mL
- predicted in vivo CLint human [8]: 79 mL/min/kg

SMILES: Cc1cc(NC2CCc3cc(Br)ccc3C2)n2nc(C(C)(F)F)nc2n1 (stereo not shown) [Compound 11, 2-(1,1-Difluoroethyl)-N-(6-bromo-1,2,3,4-tetrahydronaphthalen-2-yl)-5-methyl-[1,2,4]triazolo[1,5-a]pyrimidin-7-amine]
- clearance (in vivo): 2.8 mL/min/kg
- PPB human (% bound) [13]: 99.0 % bound
- PPB rat (% bound) [14]: 99.7 % bound
- predicted in vivo CLint mouse ([15]; from mouse microsomal CLint using physiological scaling factors): 67 mL/min/kg
- in vitro CLint mouse ([15]; mouse liver microsomes): 26 μL/min/mg protein
- predicted in vivo CLint rat [16]: 19 mL/min/kg
- IC50 (dog DHODH): > 100 µM
- kinetic solubility pH 6.5 ([17]; pH 6.5, range following 30 min at room temperature): 3.1–6.3 μg/mL
- PPB mouse (% bound) ([18]; mouse plasma, ultracentrifugation): 99.2 % bound
- difference of IC50 P. vivax DHODH versus PfDHODH (PvDHODH [19]): 5–8 fold
- predicted in vivo CLint human ([20]; from human microsomal CLint using physiological scaling factors): < 5.8 mL/min/kg
- in vitro CLint human ([20]; human liver microsomes): < 7 μL/min/mg protein

SMILES: Cc1cc(NC2CCc3ccc(Br)cc3C2)n2nc(C(C)(F)F)nc2n1 (stereo not shown) [Compound 13, 2-(1,1-Difluoroethyl)-N-(7-bromo-1,2,3,4-tetrahydronaphthalen-2-yl)-5-methyl-[1,2,4]triazolo[1,5-a]pyrimidin-7-amine]
- clearance (in vivo): 22.4 mL/min/kg
- PPB human (% bound) [13]: 96.3 % bound
- PPB rat (% bound) [14]: 97.2 % bound
- IC50 (hDHODH [21]): > 100 µM
- IC50 (dog DHODH): > 100 µM
- solubility kinetic at 30 min ([17]; pH 6.5 phosphate buffer, pH 6.5): 1.6 to 3.1 µg/mL (≈ 3.79 to 7.34 µM)
- mouse PPB (% bound) ([18]; approximation based on rat and human plasma protein binding data): 97.2 ^c % bound
- difference of IC50 P. vivax DHODH versus PfDHODH (PvDHODH [19]): 1.5–3 fold
- CLint scaled at 1 μM [20, 24]: < 5.8 mL/min/kg
- microsomal CLint at 1 μM [20, 24]: < 7 µL/min/mg
- IC50 (hDHODH [22]): > 100 µM
